Results from ChEMBL document CHEMBL5634077, “Recent advances in 1,2,3- and 1,2,4-triazole hybrids as antimicrobials and their SAR: A critical review” (2023).
In brackets after ≈: the same amount, converted by molar mass.

How the values were obtained:
Type in all cases: functional
[1] = tested on: Staphylococcus epidermidis; experiment: Antibacterial activity against Staphylococcus epidermidis assessed as reduction in microbial growth
Bacillus subtilis [2] = experiment: Antibacterial activity against Bacillus subtilis MTCC 441 assessed as reduction in microbial growth
Candida albicans = experiment: Antifungal activity against Candida albicans MTCC 227 assessed as inhibition of fungal growth
Aspergillus niger = experiment: Antifungal activity against Aspergillus niger MTCC 8189 assessed as inhibition of fungal growth
Escherichia coli = experiment: Antibacterial activity against Escherichia coli MTCC 16521 assessed as reduction in microbial growth
Staphylococcus aureus [3] = experiment: Antibacterial activity against methicillin-resistant Staphylococcus aureus assessed as reduction in microbial growth incubated for 18 to 24 hrs by serial dilution method; details: time 18-24 hrs
Staphylococcus aureus [4] = experiment: Antibacterial activity against methicillin-sensitive Staphylococcus aureus assessed as reduction in microbial growth incubated for 18 to 24 hrs by serial dilution method; details: time 18-24 hrs
Staphylococcus aureus [5] = experiment: Antibacterial activity against Staphylococcus aureus assessed as reduction in microbial growth incubated for 18 to 24 hrs by serial dilution method; details: time 18-24 hrs
Staphylococcus aureus [6] = experiment: Antibacterial activity against Methicillin-resistant Staphylococcus aureus assessed as bacterial growth inhibition
Enterococcus faecalis = experiment: Antibacterial activity against Enterococcus faecalis assessed as bacterial growth inhibition
Enterococcus faecium = experiment: Antibacterial activity against Enterococcus faecium assessed as inhibition of bacterial growth
[7] = tested on: Staphylococcus epidermidis; experiment: Antibacterial activity against Methicillin-sensitive Staphylococcus epidermidis assessed as bacterial growth inhibition
[8] = tested on: Staphylococcus epidermidis; experiment: Antibacterial activity against Methicillin-resistant Staphylococcus epidermidis assessed as bacterial growth inhibition
Staphylococcus aureus [9] = experiment: Antibacterial activity against Methicillin-sensitive Staphylococcus aureus assessed as bacterial growth inhibition
Bacillus subtilis [10] = experiment: Antibacterial activity against Bacillus subtilis assessed as inhibition of bacterial growth by microdilution method
Staphylococcus aureus [11] = experiment: Antibacterial activity against Staphylococcus aureus assessed as inhibition of bacterial growth by microdilution method
[12] = tested on: Staphylococcus epidermidis; experiment: Antibacterial activity against Staphylococcus epidermidis assessed as inhibition of bacterial growth by microdilution method

| Structure (SMILES) | MIC [1] [µM] | MIC (Bacillus subtilis [2]) [µM] | MIC (Candida albicans) [µM] | MIC (Aspergillus niger) [µM] | MIC (Escherichia coli) [µM] | MIC (Staphylococcus aureus [3]) [µg/mL] | MIC (Staphylococcus aureus [4]) [µg/mL] | MIC (Staphylococcus aureus [5]) [µg/mL] | other results |
| --- | --- | --- | --- | --- | --- | --- | --- | --- | --- |
| COc1c(N2CCN(C(=O)Cn3cc(CN4C(=O)/C(=N/O)c5ccccc54)nn3)C(C)C2)c(F)cc2c(=O)c(C(=O)O)cn(C3CC3)c12 (stereo not drawn) |  |  |  |  |  | 0.03 | 0.03 | 0.03 |  |
| COc1c(N2CCNC(C)C2)c(F)cc2c(=O)c(C(=O)O)cn(C3CC3)c12 (stereo not drawn) [GATIFLOXACIN] |  |  |  |  |  | 0.12 | 0.12 | 0.12 |  |
| CO/N=C1/C(=O)N(Cc2cn(CC(=O)N3CCC[C@@H]4CN(c5c(F)cc6c(=O)c(C(=O)O)cn(C7CC7)c6c5OC)C[C@@H]43)nn2)c2cccc(F)c21 |  |  |  |  |  |  |  |  | MIC (Staphylococcus aureus [6]): 0.06 µg/mL (≈ 0.0837 µM); MIC (Enterococcus faecalis): 0.06 µg/mL (≈ 0.0837 µM); MIC (Enterococcus faecium): 0.06 µg/mL (≈ 0.0837 µM); MIC [7]: 0.06 µg/mL (≈ 0.0837 µM); MIC [8]: 0.06 µg/mL (≈ 0.0837 µM); MIC (Staphylococcus aureus [9]): 0.06 µg/mL (≈ 0.0837 µM) |
| Cc1cc(=O)oc2cc(OCc3cn(-c4ccc(N5CCOCC5)c(F)c4)nn3)ccc12 |  |  |  |  |  |  |  |  | MIC (Bacillus subtilis [10]): 50 µg/mL (≈ 115 µM); MIC (Staphylococcus aureus [11]): 25 µg/mL (≈ 57.3 µM); MIC [12]: 25 µg/mL (≈ 57.3 µM) |
| CCO/N=C1/C(=O)N(Cc2cn(CC(=O)N3CCN(c4c(F)cc5c(=O)c(C(=O)O)cn(C6CC6)c5c4OC)CC3C)nn2)c2ccc(C)cc21 (stereo not drawn) |  |  |  |  |  | 0.03 | 0.03 | 0.03 |  |
| CO/N=C1/C(=O)N(Cc2cn(CC(=O)N3CCN(c4c(F)cc5c(=O)c(C(=O)O)cn(C6CC6)c5c4OC)CC3C)nn2)c2c(F)cccc21 (stereo not drawn) |  |  |  |  |  | 0.03 | 0.03 | 0.03 |  |
| Fc1cc(-n2cc(COc3cccc(Cl)c3)nn2)ccc1N1CCOCC1 |  |  |  |  |  |  |  |  | MIC (Bacillus subtilis [10]): 25 µg/mL (≈ 64.3 µM); MIC (Staphylococcus aureus [11]): 25 µg/mL (≈ 64.3 µM); MIC [12]: 50 µg/mL (≈ 129 µM) |
| O=C(NCc1cn(CCCCCCn2cc(CNC(=O)Nc3ccc(Cl)cc3)nn2)nn1)Nc1ccc(Cl)cc1 | 6 | 6 | 6 (≈ 3.51 µg/mL) | 6 (≈ 3.51 µg/mL) | 6 |  |  |  |  |
| CCO/N=C1/C(=O)N(Cc2cn(CC(=O)N3CCN(c4c(F)cc5c(=O)c(C(=O)O)cn(C6CC6)c5c4OC)CC3C)nn2)c2ccccc21 (stereo not drawn) |  |  |  |  |  | 0.03 | 0.03 | 0.03 |  |
| O=c1cc(OCc2cn(-c3ccc(N4CCOCC4)c(F)c3)nn2)c2ccccc2o1 |  |  |  |  |  |  |  |  | MIC (Bacillus subtilis [10]): 25 µg/mL (≈ 59.2 µM); MIC (Staphylococcus aureus [11]): 50 µg/mL (≈ 118 µM); MIC [12]: 25 µg/mL (≈ 59.2 µM) |
| O=C(NCc1cn(CCCCCCn2cc(CNC(=O)Nc3ccc(F)cc3)nn2)nn1)Nc1ccc(F)cc1 | 6 | 6 | 6 (≈ 3.32 µg/mL) | 6 (≈ 3.32 µg/mL) | 6 |  |  |  |  |
| Fc1cc(-n2cc(CSc3nc4cc(Br)ccc4s3)nn2)ccc1N1CCOCC1 |  |  |  |  |  |  |  |  | MIC (Bacillus subtilis [10]): 25 µg/mL (≈ 49.4 µM); MIC (Staphylococcus aureus [11]): 50 µg/mL (≈ 98.7 µM); MIC [12]: 50 µg/mL (≈ 98.7 µM) |
| CCO/N=C1/C(=O)N(Cc2cn(CC(=O)N3CCN(c4c(F)cc5c(=O)c(C(=O)O)cn(C6CC6)c5c4OC)CC3C)nn2)c2ccc(F)cc21 (stereo not drawn) |  |  |  |  |  | 0.03 | 0.03 | 0.03 |  |
| O=C(NCc1cn(CCCCn2cc(CNC(=O)Nc3ccc(Cl)cc3)nn2)nn1)Nc1ccc(Cl)cc1 | 6 | 6 | 6 (≈ 3.34 µg/mL) | 6 (≈ 3.34 µg/mL) | 6 |  |  |  |  |
| COc1c(N2CCN(C(=O)Cn3cc(CN4C(=O)C(=O)c5ccccc54)nn3)C(C)C2)c(F)cc2c(=O)c(C(=O)O)cn(C3CC3)c12 (stereo not drawn) |  |  |  |  |  | 0.03 | 0.03 | 0.03 |  |
| CO/N=C1/C(=O)N(Cc2cn(CC(=O)N3CCN(c4c(F)cc5c(=O)c(C(=O)O)cn(C6CC6)c5c4OC)CC3C)nn2)c2ccccc21 (stereo not drawn) |  |  |  |  |  | 0.03 | 0.03 | 0.03 |  |
| Fc1cc(-n2cc(CSc3nc4ccccc4o3)nn2)ccc1N1CCOCC1 |  |  |  |  |  |  |  |  | MIC (Bacillus subtilis [10]): 12.5 µg/mL (≈ 30.4 µM); MIC (Staphylococcus aureus [11]): 25 µg/mL (≈ 60.8 µM); MIC [12]: 6.25 µg/mL (≈ 15.2 µM) |
| COc1c(N2CCN(C(=O)Cn3cc(CN4C(=O)C(=O)c5cc(Cl)cc(Cl)c54)nn3)C(C)C2)c(F)cc2c(=O)c(C(=O)O)cn(C3CC3)c12 (stereo not drawn) |  |  |  |  |  | 0.03 | 0.03 | 0.03 |  |

Further lines, with some results ahead:

| MIC [1] [µM] | MIC (Bacillus subtilis [2]) [µM] | MIC (Candida albicans) [µM] | MIC (Aspergillus niger) [µM] | MIC (Escherichia coli) [µM] | Structure (SMILES) | MIC (Staphylococcus aureus [3]) [µg/mL] | MIC (Staphylococcus aureus [4]) [µg/mL] | MIC (Staphylococcus aureus [5]) [µg/mL] | other results |
| --- | --- | --- | --- | --- | --- | --- | --- | --- | --- |
| 6 | 6 | 6 (≈ 3.29 µg/mL) | 5 (≈ 2.74 µg/mL) | 6 | COc1ccc(NC(=O)NCc2cn(CCCCn3cc(CNC(=O)Nc4ccc(OC)cc4)nn3)nn2)cc1 |  |  |  |  |
| 6 | 6 | 6 (≈ 3.21 µg/mL) | 6 (≈ 3.21 µg/mL) | 6 | COc1ccc(NC(=O)NCc2cn(CCCn3cc(CNC(=O)Nc4ccc(OC)cc4)nn3)nn2)cc1 |  |  |  |  |
| 6 | 6 | 6 (≈ 3.63 µg/mL) | 6 (≈ 3.63 µg/mL) | 6 | O=C(NCc1cn(Cc2cccc(Cn3cc(CNC(=O)Nc4ccc(Cl)cc4)nn3)c2)nn1)Nc1ccc(Cl)cc1 |  |  |  |  |
| 6 | 6 | 6 (≈ 3.23 µg/mL) | 6 (≈ 3.23 µg/mL) | 6 | O=C(NCc1cn(CCCCCn2cc(CNC(=O)Nc3ccc(F)cc3)nn2)nn1)Nc1ccc(F)cc1 |  |  |  |  |
| 6 | 6 | 6 (≈ 3.26 µg/mL) | 6 (≈ 3.26 µg/mL) | 6 | O=C(NCc1cn(CCCn2cc(CNC(=O)Nc3ccc(Cl)cc3)nn2)nn1)Nc1ccc(Cl)cc1 |  |  |  |  |
